{"source": "patent US20220112199A1", "about": "“EGFR INHIBITOR FOR MEDICAL USE” (Hoffmann-La Roche Inc., priority 2019, published 2022)", "target": "T1, EGFR TMLRCS (T790M/L858R/C797S) in BaF3-TMLRCS cell line (Homo sapiens, UniProt P00533, C797S/L858R/T790M)", "T1 construct": "host or cells: BaF3 (BaF3-TMLRCS cell line)", "T1 sequence (P00533 25-1210 T790M/C797S/L858R)": "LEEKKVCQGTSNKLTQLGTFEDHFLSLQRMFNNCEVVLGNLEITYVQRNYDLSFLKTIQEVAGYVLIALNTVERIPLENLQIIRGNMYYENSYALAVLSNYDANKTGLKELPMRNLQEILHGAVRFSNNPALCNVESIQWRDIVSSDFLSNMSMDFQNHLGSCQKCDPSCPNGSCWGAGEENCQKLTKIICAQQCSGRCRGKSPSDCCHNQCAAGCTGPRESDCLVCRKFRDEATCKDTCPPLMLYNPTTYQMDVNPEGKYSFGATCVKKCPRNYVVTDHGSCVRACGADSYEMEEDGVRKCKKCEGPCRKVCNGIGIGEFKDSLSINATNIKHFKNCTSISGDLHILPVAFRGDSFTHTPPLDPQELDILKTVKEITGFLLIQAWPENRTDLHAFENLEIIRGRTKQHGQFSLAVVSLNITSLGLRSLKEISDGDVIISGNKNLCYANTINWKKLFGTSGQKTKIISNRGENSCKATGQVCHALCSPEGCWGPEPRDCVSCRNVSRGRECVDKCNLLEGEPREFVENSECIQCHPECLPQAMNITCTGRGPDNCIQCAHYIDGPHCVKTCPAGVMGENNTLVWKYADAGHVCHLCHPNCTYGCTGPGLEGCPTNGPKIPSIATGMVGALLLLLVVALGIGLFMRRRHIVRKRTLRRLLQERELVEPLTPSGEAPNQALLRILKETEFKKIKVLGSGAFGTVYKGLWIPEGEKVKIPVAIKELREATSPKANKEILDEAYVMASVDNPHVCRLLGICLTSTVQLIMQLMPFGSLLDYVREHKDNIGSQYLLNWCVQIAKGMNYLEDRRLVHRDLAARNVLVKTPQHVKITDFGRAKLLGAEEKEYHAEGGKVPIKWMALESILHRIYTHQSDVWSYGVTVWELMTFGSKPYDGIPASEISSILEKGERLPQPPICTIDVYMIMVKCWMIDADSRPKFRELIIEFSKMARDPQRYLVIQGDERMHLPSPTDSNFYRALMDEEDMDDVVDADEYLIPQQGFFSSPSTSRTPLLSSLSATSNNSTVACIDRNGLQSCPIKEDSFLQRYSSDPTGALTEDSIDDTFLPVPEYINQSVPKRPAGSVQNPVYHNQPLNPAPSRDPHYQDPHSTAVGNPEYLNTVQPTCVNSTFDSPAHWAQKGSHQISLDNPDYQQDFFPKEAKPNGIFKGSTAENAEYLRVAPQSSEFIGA", "assay": "HTRF Phospho EGFR TMLRCS Assay (Cellular)", "assay_type": "cell-based", "settings": "BaF3-TMLRCS cells, 4 hours incubation", "description": "HTRF Phospho EGFR TMLRCS Assay (Cellular)\nBaF3-TMLRCS cell line were obtained from Crownbio (San Diego, Calif., USA). Cells were maintained at 37° C., 5% CO2 in RPMI ATCC (Gibco 31870)+2 mM Glutamine+0.5 μg/ml Puromycin supplemented with 10% fetal bovine serum (FBS) (Gibco).\nCells are transferred as above to Greiner Bio-One, Nr. 784-08 micro-titerplate at 20000 cells/well in 12.5 μl of growth medium/well after the plates had been pre-filled with 12.5 nl of DMSO solutions of the to be tested compounds (in dose response) or DMSO only. After spinning the plates at 300 ×g for 30 seconds the cells were incubated for 4 hours at 37 C, 5% CO2, 95% humidity. The cells were lysed by adding to the compound mix 4 μl/well of the supplemented lysis buffer (Cis-bio, Phospho-EGFR HTRF kit, 64EG1PEH), followed by incubation for 30 min at room temperature with shaking (400 rpm). The plates were then frozen and stored overnight at −80 C. […] The lidded plates were then incubated for 4 h at room temperature before reading the fluorescence emission at 616 and 665 nm using an Envision reader (Perkin Elmer). Data was analyzed in similar fashion as above using the normalized ratio of the 665 to 616 signals multiplied by 10000.", "note": "pIC50: −log10 of the molar value.", "data": [{"smiles": "O=C(Nc1nccs1)C(c1ncn2c1CCC2)N1Cc2c(cc(C#Cc3ccc(CN4CCC(O)CC4)cc3)cc2C(F)(F)F)C1=O", "note": "(racemic) [Example 1, (2RS)-2-(6,7-Dihydro-5H-pyrrolo[1,2-c]imidazol-1-yl)-2-[6-[2-[4-[(4-hydroxy-1-piperidyl)methyl]phenyl]ethynyl]-1-oxo-4-(trifluoromethyl)isoindolin-2-yl]-N-thiazol-2-yl-acetamide]", "values": [{"measurement": "pIC50", "result": 7.85}]}]}
